Laboratory results as given in patent US20120190579A1, “Functionalisation of Solid Substrates” (priority 2009, published 2012).

System: not given
Assay: not given
Conditions: not given

Compound | melting point
COC(=O)[C@H](CSC1=CC(=O)N(C)C1=O)NC(=O)OC(C)(C)C | 101 to 103 °C
C=CCCNC1=CC(=O)NC1=O | 68 to 76 °C
O=C1CC2(SCCS2)C(=O)N1 | 112 to 115 °C
CC(C)(C)OC(=O)NCCOCCOCCNC(=O)CCCC[C@@H]1SC[C@@H]2NC(=O)N[C@@H]21 (stereo in doubt) | 106 to 108 °C

Other lines, results leading:

melting point | Compound
148 to 151 °C | O=C1C=C(Br)C(=O)N1
77 to 79 °C | CN1C(=O)C=C(Br)C1=O
145 to 147 °C | COC(=O)[C@H](CSC1=CC(=O)NC1=O)NC(=O)OC(C)(C)C
110 to 113 °C | O=C1NC(=O)C23NCC[C@H]2C[C@H]13 (some centres unmarked)
238 to 241 °C | O=C1NC(=O)C(I)=C1I
46 to 50 °C | O=C1NC(=O)C(SCCO)=C1SCCO
70 to 72 °C | O=C1NC(=O)C(Sc2ccccn2)=C1Sc1ccccn1
99 to 101 °C | CCCCCCSC1=CC(=O)NC1=O
95 to 98 °C | O=C(CCCC[C@@H]1SC[C@@H]2NC(=O)N[C@@H]21)NCCOCCOCCN1C(=O)C=C(Br)C1=O (stereo in doubt)
100 to 102 °C | O=C(CCCC[C@@H]1SC[C@@H]2NC(=O)N[C@@H]21)NCCOCCOCCN1C(=O)C(Br)=C(Br)C1=O (stereo in doubt)

Biological target: neutravidin-coated agarose beads (Gallus gallus, UniProt P02701)
Assay: Pull-down and release of biotinylated protein adduct on neutravidin coated agarose beads
Conditions: release with β-mercaptoethanol (25 mM) 2 h at 37° C.; densitometry vs protein series dilution
Procedure: Protein/biotin-PEG-bromomaleimide adduct (200 μL) and unmodified model protein (200 μL) were washed independently with PBS buffer (3×500 μL) in a concentrator (Vivaspin, cut off 10 k) yielding protein solutions (300 μL) (In). For each of the protein solutions obtained, neutravidin-coated agarose beads (750 μL of 50% aqueous slurry) were washed with PBS (2×500 μL). Protein solution (300 μL) was then added to the beads and the mixture incubated at 4° C. for 30 mins. The mixture was centrifuged and the flow through (FT) collected. The beads were washed with PBS (2×500 μL) and both wash fractions collected (W1 and W2). Protein was released from the beads by incubation in PBS (300 μL) containing β-mercaptoethanol (25 mM) for 2 h at 37° C. The sample was centrifuged and the eluant (El) containing cleaved GrB2-SH2 domain L111C collected.
The amount of protein recovered was determined as 44% by comparison with a protein series dilution via densitometry. However, correcting for irreversibly physisorbed protein (determined using the unmodified protein control) the corrected recovery was 71%.

Compound | amount of protein recovered
GrB2-SH2 Domain L111C/Biotin-PEG-bromomaleimide Adduct | 44%

Biological target: T1, human somatostatin receptor 2 (Homo sapiens, UniProt P30874)
T1 construct: host or cells: HEK293 cells stably expressing Kir3.1 and Kir3.2A
T1 sequence (P30874 whole entry): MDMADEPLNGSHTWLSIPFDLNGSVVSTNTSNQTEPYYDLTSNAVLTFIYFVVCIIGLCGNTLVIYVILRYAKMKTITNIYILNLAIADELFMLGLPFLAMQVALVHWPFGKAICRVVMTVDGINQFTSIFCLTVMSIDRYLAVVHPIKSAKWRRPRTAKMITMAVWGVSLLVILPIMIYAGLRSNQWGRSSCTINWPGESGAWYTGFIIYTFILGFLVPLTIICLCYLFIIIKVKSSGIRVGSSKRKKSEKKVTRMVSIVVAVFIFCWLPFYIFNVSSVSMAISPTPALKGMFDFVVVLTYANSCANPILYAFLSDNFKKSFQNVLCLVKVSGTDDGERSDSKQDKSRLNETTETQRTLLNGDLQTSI
Assay: Whole cell patch-clamp current recordings of bridged somatostatin analogues
Format: cell-based
Conditions: Pertussis toxin 100 ng/ml overnight; Tertiapin 100 nM

Compound | GIRK currents after treatment of cells with inhibitor (control)
Pertussis toxin | currents were largely inhibited
Tertiapin Q | currents were largely inhibited
